Structures are written as SMILES.

The record followed here is patent US10364263B2, “Cyclic phosphates and cyclic phosphoramidates for the treatment of neurologic disorders” (Retrophin, Inc., priority 2015, dated 2019).

The test system of this assay is PANK2 silenced human neuroblastoma IMR32 cells (PANK2−/−). In words: Coenzyme A assay in PANK2 silenced cells (LC-MS quantification of free CoA). The class given is cell-based. Particulars: compound added twice (24 h + 24 h), relative to 0.1% DMSO controls. On the procedure:
A human neuroblastoma IMR32 cell line (ATCC) with stably PANK2 silencing was obtained by lentiviral-delivered small hairpin RNA and cultured in MEM (Invitrogen) supplemented with 10% fetal bovine serum, 2 mM glutamine, 1% penicillin-streptomycin, 1 mM sodium pyruvate, 1 mM non essential amino acids and 1.5 g/l sodium bicarbonate.
For lentiviral shRNA expression, Human Emryonic Kidney HEK-293T cells (ATCC) were transfected with the appropriate pGFP-Lenti-shRNA constructs and packaging plasmids according to manufacturer's protocol (Origene Technologies, Inc.). Four different gene-specific shRNA expression vectors designed against multiple splice variants of PANK2 (Gene ID 80025) were used for transfection. A non-silencing shRNA construct (scrambled shRNA) and an empty vector expressing GFP alone were used as negative controls. The GFP tag subcloned into the lentiviral vectors was used to monitor the transfection efficiency.
IMR32 cells were plated on 150 cm dishes 48 h before transduction with lentiviral particles.
Three days after transduction medium was removed and replaced with fresh medium containing […] puromycin. Medium was replaced every 48 h. Levels of PANK2 expression on selected clones was assessed by Western Blot analysis.
To quantify CoA, PANK2^−/− IMR32 cells were plated on 12-well culture plates (Corning) at a density of 0.2×10^6 cells per well. After 72 h, compounds were freshly dissolved in DMSO and added to the culture medium to yield a final solvent concentration of 0.1% (v/v). Controls with medium containing 0.1% DMSO without test compounds were also included in each plate. Compound treated cells were incubated for 24 h at 37° C. Treatment was repeated after 24 h with newly dissolved compound and cells were further incubated at 37° C. for additional 24 h. Before LC-MS analysis of CoA levels, cells were harvested, counted, and collected in a 15 ml falcon tube and centrifuged at 200×g for 5 min at 4° C. Supernatant was removed and cell pellet was washed in 10 ml of ice-cold PBS. To further confirm that the numbers of cells in each sample were equivalent, an equal fraction of pellet was collected from each sample and subjected to protein determination analysis. After centrifugation and supernatant removal, the cell pellet was rapidly frozen in Liquid Nitrogen and stored at −80° C. until analysis.
Intracellular CoA levels were calculated considering an intracellular volume of 1 million cells=2 μl.
The 1×10^6 cellular pellet was extracted with 120 μl of aqueous 20% TFA. This solution was stirred for 2 min, sonicated in ultrasonic bath for 2 min, then stirred again for 1 min, and centrifuged for 15 min at 14000 g and at 4° C.
100 μL samples of supernatant were dried under N2 at 20° C. in the dark.
Samples were re-dissolved in 100 μl of 10 mM NH4^+ AcO^− buffer pH 5.1+IS (Dextrorphan 50 ng/ml), stirred for 2 min, sonicated in ultrasonic bath for 1 min, then stirred again for 1 min, and injected into LC-MS.
LC-MS/MS was performed using an Agilent HPLC (1100 Series, USA). The LC system was interfaced with an API-4000 Q-Trap triple quadrupole mass spectrometer (AB Sciex, Toronto, Canada) equipped with a TurbolonSpray ionization source operating in positive ion mode. Analyst™ software version 1.6 (AB Sciex, Toronto, Canada) was used for data acquisition and processing. CoA was separated using a Luna C18 column (2.0×50 mm; 5 μm particle size), column at 25° C. and flow rate of 0.2 ml/min. Injection volume was 15 μl. The mobile phases consisted of water containing 10 mM ammonium acetate pH 7 (mobile phase A) and MeCN-2-propanol 9:1 (mobile phase B). Elution was performed using a gradient starting at 2% B, holding at 2% B until 0.1 min, increasing to 98% B at 3.2 min, holding at 98% B until 4.5 min, returning to 2% B at 4.6 min and holding at 2% B until 7.5 min. Precursor ions and MRM transitions used were: CoA m/z 768.1→261.6 and 768.1→136.1. […]
Regarding `COC(=O)CCNC(=O)[C@@H]1OP(=O)(OCOC(=O)c2cnco2)OCC1(C)C` (stereo partly drawn) [Compound No. 87, (((4R)-4-((3-methoxy-3-oxopropyl)carbamoyl)-5,5-dimethyl-2-oxido-1,3,2-dioxaphosphinan-2-yl)oxy)methyl oxazole-5-carboxylate], the “PANK2−/− CoA (Fold Increase): fold increase in Coenzyme A (CoA) levels relative to controls” value amounted to 58.7 Fold Increase.
`COC(=O)CCNC(=O)[C@@H]1O[P@](=O)(Oc2ccc([N+](=O)[O-])cc2)OCC1(C)C` (single isomer, unassigned) [Compound No. 2-120]: the “PANK2−/− CoA (Fold Increase): fold increase in Coenzyme A (CoA) levels relative to controls” value came out at 21.05 Fold Increase.
To `COC(=O)CCNC(=O)[C@@H]1O[P@](=O)(OCOC(=O)c2sncc2C)OCC1(C)C` [2-177, (((2R,4R)-4-((3-methoxy-3-oxopropyl)carbamoyl)-5,5-dimethyl-2-oxido-1,3,2-dioxaphosphinan-2-yl)oxy)methyl 4-methylisothiazole-5-carboxylate] belongs 77.18 Fold Increase; to `COC(=O)[C@H](C)N[P@@]1(=O)OCC(C)(C)[C@H](C(=O)NCCC(=O)OCc2ccncc2)O1` (single isomer, unassigned) [compound 18, methyl ((2R,4R)-5,5-dimethyl-2-oxido-4-((3-oxo-3-(pyridin-4-ylmethoxy)propyl)carbamoyl)-1,3,2-dioxaphosphinan-2-yl)-L-alaninate or methyl ((2S,4R)-5,5-dimethyl-2-oxido-4-((3-oxo-3-(pyridin-4-ylmethoxy)propyl)carbamoyl)-1,3,2-dioxaphosphinan-2-yl)-L-alaninate], 2.06 Fold Increase; to `COC(=O)CCNC(=O)[C@@H]1O[P@](=O)(NCC2CCCO2)OCC1(C)C` (stereo partly drawn) [compound 119, methyl 3-((2S,4R)-5,5-dimethyl-2-oxido-2-(((tetrahydrofuran-2-yl)methyl)amino)-1,3,2-dioxaphosphinane-4-carboxamido)propanoate], 1.44 Fold Increase.
In the case of `COC(=O)CCNC(=O)[C@@H]1O[P@](=O)(Oc2ccc(C(F)(F)F)nc2)OCC1(C)C` [2-198, methyl 3-((2R,4R)-5,5-dimethyl-2-oxido-2-((6-(trifluoromethyl)pyridin-3-yl)oxy)-1,3,2-dioxaphosphinane-4-carboxamido)propanoate], the “PANK2−/− CoA (Fold Increase): fold increase in Coenzyme A (CoA) levels relative to controls” value was 13.6 Fold Increase.
Regarding `COC(=O)CCNC(=O)[C@@H]1O[P@](=O)(Oc2ccccc2C(=O)OC)OCC1(C)C` [2-166], the “PANK2−/− CoA (Fold Increase): fold increase in Coenzyme A (CoA) levels relative to controls” value worked out at 3.61 Fold Increase.
In the case of `COC(=O)CCNC(=O)[C@@H]1O[P@](=O)(N2CCS(=O)(=O)CC2)OCC1(C)C` [compound 138, methyl 3-((2S,4R)-2-(1,1-dioxidothiomorpholino)-5,5-dimethyl-2-oxido-1,3,2-dioxaphosphinane-4-carboxamido) propanoate], the “PANK2−/− CoA (Fold Increase): fold increase in Coenzyme A (CoA) levels relative to controls” value was 1.7 Fold Increase.
With `COC(=O)CCNC(=O)[C@@H]1OP(=O)(OCOC(=O)N[C@@H](CSC(=O)C(C)(C)C)C(=O)O)OCC1(C)C` (stereo partly drawn) [2-180, N-(((((4R)-4-((3-methoxy-3-oxopropyl)carbamoyl)-5,5-dimethyl-2-oxido-1,3,2-dioxaphosphinan-2-yl)oxy)methoxy)carbonyl)-S-pivaloyl-L-cysteine], the “PANK2−/− CoA (Fold Increase): fold increase in Coenzyme A (CoA) levels relative to controls” value turned out to be 26.8 Fold Increase.
Consider `CO[13C](=O)[13CH2][13CH2][15NH]C(=O)[C@@H]1OP(=O)(Oc2ccccc2)OCC1(C)C` (stereo partly drawn) [2-109, methyl 3-((4R)-5,5-dimethyl-2-oxido-2-phenoxy-1,3,2-dioxaphosphinane-4-carboxamido-15N)propanoate-1,2,3-13C3], for which the “PANK2−/− CoA (Fold Increase): fold increase in Coenzyme A (CoA) levels relative to controls” value is on record as 2.04 Fold Increase.
Turning to `CC(C)(C)OC(=O)CCNC(=O)[C@@H]1OP(=O)(O)OCC1(C)C` [Compound No. 2-111, tert-butyl 3-((4R)-2-hydroxy-5,5-dimethyl-2-oxido-1,3,2-dioxaphosphinane-4-carboxamido)propanoate], the “PANK2−/− CoA (Fold Increase): fold increase in Coenzyme A (CoA) levels relative to controls” value is reported as 1.16 Fold Increase.
Regarding `COC(=O)CCNC(=O)[C@@H]1O[P@](=O)(Oc2ccc(C(F)(F)F)cc2)OCC1(C)C` [2-197, methyl 3-((2R,4R)-5,5-dimethyl-2-oxido-2-(4-(trifluoromethyl)phenoxy)-1,3,2-dioxaphosphinane-4-carboxamido)propanoate], the “PANK2−/− CoA (Fold Increase): fold increase in Coenzyme A (CoA) levels relative to controls” value is on record as 101.95 Fold Increase.
Under `COC(=O)CCNC(=O)[C@@H]1O[P@@](=O)(OC(C)OC(=O)C(C)C)OCC1(C)C` (stereo partly drawn) [compound 106, 1-(((2S,4R)-4-((3-methoxy-3-oxopropyl)carbamoyl)-5,5-dimethyl-2-oxido-1,3,2-dioxaphosphinan-2-yl)oxy)ethyl isobutyrate] stands 2.66 Fold Increase.
To `COC(=O)CCNC(=O)[C@@H]1O[P@@](=O)(OCOC(=O)c2sncc2C)OCC1(C)C` [2-176, (((2S,4R)-4-((3-methoxy-3-oxopropyl)carbamoyl)-5,5-dimethyl-2-oxido-1,3,2-dioxaphosphinan-2-yl)oxy)methyl 4-methylisothiazole-5-carboxylate] belongs 53.24 Fold Increase; to `COC(=O)CCNC(=O)[C@@H]1O[P@](=O)(OC(C)OC(=O)C(C)(C)C)OCC1(C)C` (stereo partly drawn) [compound 102, 1-(((2R,4R)-4-((3-methoxy-3-oxopropyl)carbamoyl)-5,5-dimethyl-2-oxido-1,3,2-dioxaphosphinan-2-yl)oxy)ethyl pivalate], 2.5 Fold Increase.
Under `COC(=O)CCNC(=O)[C@@H]1O[P@@](=O)(N[C@@H](C)C(=O)OC)OCC1(C)C` [1-52, methyl 3-((2R,4R)-2-(((S)-1-methoxy-1-oxopropan-2-yl)amino)-5,5-dimethyl-2-oxido-3,3,2-dioxaphosphinane-4-carboxamido)propanoate] stands 2.09 Fold Increase; under `COC(=O)CCNC(=O)[C@@H]1O[P@](=O)(OCC(F)(F)F)OCC1(C)C` [2-123, methyl 3-((2S,4R)-5,5-dimethyl-2-oxido-2-(2,2,2-trifluoroethoxy)-1,3,2-dioxaphosphinane-4-carboxamido)propanoate], 1.46 Fold Increase.
On to `COC(=O)CCNC(=O)[C@@H]1O[P@@](=O)(Oc2ccc(C[C@H](NC(=O)OC(C)(C)C)C(=O)OC)cc2)OCC1(C)C` (single isomer, unassigned) [2-204], for which the “PANK2−/− CoA (Fold Increase): fold increase in Coenzyme A (CoA) levels relative to controls” value is 5.75 Fold Increase.
As to `COC(=O)CCNC(=O)[C@@H]1OP(=O)(Oc2ccc([N+](=O)[O-])cc2)OCC1(C)C` (stereo partly drawn) [Compound No. 2-134, Methyl 3-((4R)-5,5-dimethyl-2-(4-nitrophenoxy)-2-oxido-1,3,2-dioxaphosphinane-4-carboxamido)propanoate], the “PANK2−/− CoA (Fold Increase): fold increase in Coenzyme A (CoA) levels relative to controls” value was determined as 5.37 Fold Increase.
As to `COC(=O)CCNC(=O)[C@@H]1OP(=O)(OCOC(=O)NCCSC(C)=O)OCC1(C)C` (stereo partly drawn) [2-136, methyl 3-((4R)-2-((((2-(acetylthio)ethyl)carbamoyl)oxy)methoxy)-5,5-dimethyl-2-oxido-1,3,2-dioxaphosphinane-4-carboxamido)propanoate], the “PANK2−/− CoA (Fold Increase): fold increase in Coenzyme A (CoA) levels relative to controls” value was determined as 1.41 Fold Increase.
